Consider twelve compounds from patent US7488598B2, “Mutant purine nucleoside phosphorylase proteins and cellular delivery thereof” (priority 2001, dated 2009).

One experiment addresses wild-type E. coli PNP (Escherichia coli, UniProt P0ABP8). The following applies: Table III; 100 μM substrate; HPLC; average of separate experiments.
For a further experiment, the target named is E. coli PNP mutant M65V (Escherichia coli, UniProt P0ABP8, M65V). The settings on record: for M65V, crude extract, rate of cleavage / M65V, pure enzyme, rate of cleavage: Table III, 100 μM substrate, HPLC, average of separate experiments.
Chain of E. coli PNP mutant M65V (P0ABP8 whole entry M65V): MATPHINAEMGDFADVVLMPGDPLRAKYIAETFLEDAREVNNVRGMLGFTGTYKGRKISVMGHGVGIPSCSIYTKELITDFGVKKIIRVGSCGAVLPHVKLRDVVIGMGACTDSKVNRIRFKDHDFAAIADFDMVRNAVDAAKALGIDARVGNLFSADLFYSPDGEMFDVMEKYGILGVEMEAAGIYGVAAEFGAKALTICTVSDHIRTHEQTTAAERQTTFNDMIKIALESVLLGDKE

The structures appear in SMILES notation.

Chain of wild-type E. coli PNP (P0ABP8 whole entry): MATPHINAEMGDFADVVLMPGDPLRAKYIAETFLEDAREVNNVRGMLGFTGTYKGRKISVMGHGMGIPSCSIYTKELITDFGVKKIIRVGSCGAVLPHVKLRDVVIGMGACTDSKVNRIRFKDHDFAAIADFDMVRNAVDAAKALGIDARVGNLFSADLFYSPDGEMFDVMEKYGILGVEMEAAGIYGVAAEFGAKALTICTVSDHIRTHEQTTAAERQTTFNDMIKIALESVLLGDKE

In the case of `C[C@H](O)[C@H]1O[C@@H](n2cnc3c(N)nc(F)nc32)[C@H](O)[C@@H]1O` [2-Fluoro-9-(6-deoxy-α-L-talofuranosyl)-9H-purin-6-amine], the “Wild type, pure enzyme, rate of cleavage” value at wild-type E. coli PNP was 26,000 nmole/mg/hr. Also, the “activity of mutant M65V PNP compared with wild-type PNP (in words)” value at E. coli PNP mutant M65V (Example 16 analysis) is reported as “more activity”. On E. coli PNP mutant M65V, the “M65V, crude extract, rate of cleavage” value is 1,110,000 nmole/mg/hr.
`C[C@@H](O)[C@H]1O[C@@H](n2cnc3c(N)nc(F)nc32)[C@H](O)[C@@H]1O` [2-Fluoro-9-(6-deoxy-β-D-allofuranosyl)-9H-purin-6-amine]: the “Wild type, pure enzyme, rate of cleavage” value on wild-type E. coli PNP is reported as 2,600 nmole/mg/hr. In addition, at E. coli PNP mutant M65V, the “M65V, crude extract, rate of cleavage” value is 93,000 nmole/mg/hr.
The matching figures for `CO[C@@H]1[C@H](O)[C@@H](CO)O[C@H]1n1cnc2c(N)ncnc21` [2′-O-methyl-adenosine]: “— (No detectable activity at 100 μg/ml (limit of detection approximately 1 nmole/mg/hr))” and “— (No detectable activity at 100 μg/ml (limit of detection approximately 1 nmole/mg/hr))”.
`Nc1ncnc2c1ncn2[C@@H]1O[C@H](CO)C[C@H]1O` [3′-deoxyadenosine]: the “Wild type, pure enzyme, rate of cleavage” value at wild-type E. coli PNP is reported as “— (No detectable activity at 100 μg/ml (limit of detection approximately 1 nmole/mg/hr))”. Also, the “M65V, crude extract, rate of cleavage” value on E. coli PNP mutant M65V is reported as “— (No detectable activity at 100 μg/ml (limit of detection approximately 1 nmole/mg/hr))”.
`CSC[C@H]1O[C@@H](n2cnc3c(N)ncnc32)[C@H](O)[C@@H]1O` [5′-deoxy-5′-methylthio-adenosine]: the “Wild type, pure enzyme, rate of cleavage” value at wild-type E. coli PNP is given as “— (No detectable activity at 100 μg/ml (limit of detection approximately 1 nmole/mg/hr))”. On E. coli PNP mutant M65V, the “M65V, pure enzyme, rate of cleavage” value amounted to 690 nmol/mg/h.
In the case of `Cc1ncnc2c1ncn2[C@@H]1O[C@H]([C@@H](C)O)[C@@H](O)[C@H]1O` [5′methyl(allo)-MeP-R, 9-(6-deoxy-β-D-allofuranosyl)-6-methylpurine], on wild-type E. coli PNP, the “Wild type, pure enzyme, rate of cleavage” value is 47 nmol/mg/h. The “M65V, crude extract, rate of cleavage” value on E. coli PNP mutant M65V was found to be 316 nmol/mg/h.
The like results for `Cc1ncnc2c1ncn2[C@@H]1O[C@@H](CI)[C@@H](O)[C@H]1O` [6-Methyl-9-(5-deoxy-5-iodo-α-L-lyxofuranosyl)purine] were, in that order, “— (No detectable activity at 100 μg/ml (limit of detection approximately 1 nmole/mg/hr))” and 4 nmol/mg/h.
For the compound `Cc1ncnc2c1ncn2[C@@H]1O[C@H](CI)[C@@H](O)[C@H]1O` [6-Methyl-9-(5-deoxy-5-iodo-β-D-ribofuranosyl)purine], the “Wild type, pure enzyme, rate of cleavage” value at wild-type E. coli PNP is “— (No detectable activity at 100 μg/ml (limit of detection approximately 1 nmole/mg/hr))”. Besides, the “M65V, pure enzyme, rate of cleavage” value at E. coli PNP mutant M65V is reported as “— (No detectable activity at 100 μg/ml (limit of detection approximately 1 nmole/mg/hr))”.
`Cc1ncnc2c1ncn2[C@@H]1O[C@@H](C)[C@@H](O)[C@H]1O` [6-Methyl-9-(5-deoxy-α-L-lyxofuranosyl)purine]: at wild-type E. coli PNP, the “Wild type, pure enzyme, rate of cleavage” value came to 20 nmol/mg/h. Moreover, on E. coli PNP mutant M65V, the “M65V, crude extract, rate of cleavage” value is 3,500 nmole/mg/hr.
The matching figures for `Cc1ncnc2c1ncn2[C@@H]1O[C@H](C)[C@@H](O)[C@H]1O` [6-Methyl-9-(5-deoxy-β-D-ribofuranosyl)purine]: 406 nmol/mg/h and 1800 nmol/mg/h.
As for `Cc1ncnc2ncn([C@H]3C[C@H](O)[C@@H](CO)O3)c12` [7-(2-deoxy-β-D-ribofuranosyl)-6-methylpurine], the “Wild type, pure enzyme, rate of cleavage” value on wild-type E. coli PNP was “— (No detectable activity at 100 μg/ml (limit of detection approximately 1 nmole/mg/hr))”. For the same compound, at E. coli PNP mutant M65V, the “M65V, crude extract, rate of cleavage” value is listed as “— (No detectable activity at 100 μg/ml (limit of detection approximately 1 nmole/mg/hr))”.
On to `Nc1nc2c(ncn2[C@@H]2O[C@H](CO)[C@@H](O)[C@H]2O)c(=O)[nH]1` [guanosine], for which the “M65V, pure enzyme, rate of cleavage” value on E. coli PNP mutant M65V is listed as 778,000 nmole/mg/hr.
